Measurements as given in patent publication US12492169B2, “Aminopyridine compound and application thereof” (priority 2020, dated 2025).
“And” between values parts separate entries of the source, which are not always exact repeats. Identical values can stand only once.

What was measured:
[1] = tested on: Aspergillus flavus ATCC MYA-1004; test: Minimum effective concentration (MEC) test against fungi; assay type: cell-based; conditions: change of hyphae morphology by microscope, 48 hours, three independent experiments
Experimental: (§1) To test the minimum inhibitory concentration (MIC) and minimum effective concentration (MEC) of the drug against fungi.
(§2) Aspergillus fumigatus ATCC-MYA-4609; Aspergillus flavus ATCC MYA-1004
(§3) Test medium: RPMI1640 (containing 0.165 M MOPS, pH7.0)
(§4) On the day of the experiment, the compound in the bottle was dissolved in 100% DMSO to a stock solution concentration of 6.24 mg/mL. Then, the mixture was 10-fold diluted with DMSO to 0.624 mg/mL for use.
(§5) A 2-fold gradient dilution of the compound solution (0.624 mg/mL) was performed using DMSO on a 96-microwell plate (V-bottom) to obtain 100× working solutions (wells 1 to 11). 624, 312, 156, 78, 39, 20, 10, 5, 2.5, 1.25, 0.625 μg/mL. 100% DMSO was used as a positive control (well 12). This was the compound stock plate.
(§6) Aspergillus fumigatus ATCC-MYA-4609; Aspergillus flavus ATCC MYA-1004 frozen at −80° C. were streaked on SDA plates and incubated aerobically in a 30±2° C. incubator for 6 days.
(§7) For strains Aspergillus fumigatus ATCC MYA-4609; Aspergillus flavus ATCC MYA-1004, after taking out the plate, 3 mL of 0.9% normal saline containing 0.1% Tween20 was added to the plate and the spores were gently collected. The spores were counted with a hemocytometer and the spore suspension was adjusted to about 5×10^6 spores/mL. Then the spore suspension was diluted to 0.8 to 1×10^5 spores/mL with a test medium.
(§8) 2 μL of 100× working solution from the compound stock plate (prepared in 3.1) was transferred to a round-bottomed 96-well plate (containing 98 μL of test medium), and then 100 μL of fungus inoculum (prepared in 3.2) was added to each well to obtain a MIC test plate. Therefore, the final test concentrations of the compounds were 6.24, 3.12, 1.56, 0.78, 0.39, 0.20, 0.10, 0.05, 0.025, 0.0125, 0.006 μg/mL. 1% DMSO was used as a growth control.
(§9) For mold strains Aspergillus fumigatus ATCC-MYA-4609 and Aspergillus flavus ATCC MYA-1004, all test plates were incubated aerobically in a 35±° C. incubator for 48 hours.
(§10) After incubation, according to the criteria in Table 1 below, the test plate was observed by eye or microscope to determine the MIC (g/mL) and MEC (g/mL) of the test compound against yeast and mold.

[2] = tested on: Aspergillus fumigatus ATCC-MYA-4609; test: as above; assay type: cell-based; conditions: change of hyphae morphology by microscope, 48 hours, three independent experiments
Experimental: as §1, §2, §3, §4, §5, §6, §7, §8, §9, §10

[3] = Mouse pharmacokinetic evaluation, intraperitoneal injection after oral ABT; assay type: in vivo; conditions: ip, female CD-1 mice, 26 mpk, ABT 50 mg/kg orally 2 hours before, plasma
From the text: Experimental Purpose: Using female CD-1 mice as test animals, LC/MS/MS was used to measure the plasma drug concentration at different times after intraperitoneal injection of the test compound. To study the pharmacokinetic behavior of the test compound in mice and evaluate its pharmacokinetic characteristics. Drug preparation: An appropriate amount of sample was weighed and then prepared into a clear or suspended solution. Administration scheme: Two healthy female CD-1 mice were taken, purchased from Beijing Vital River Laboratory Animal Technology Co., Ltd., and given a normal diet. The drug was administered through intraperitoneal injection. Operational steps: 2 hours before administration, 1-aminobenzotriazole (ABT) was orally administered (50 mg/kg, 5 mg/mL in normal saline), and after animal administration, about 30 μL of blood was collected at 0.083, 0.25, 0.5, 1, 2, 4, 8, and 24 hours, and placed in commercially available anticoagulant tubes pre-added with EDTA-K2. The tubes were centrifuged for 10 minutes to separate the plasma, and the plasma was stored at −60° C. The content of the target compound in the plasma sample was determined by LC/MS/MS method, and the experimental results are shown in Table 3.

[4] = Pharmacokinetic evaluation in mice (IV); assay type: in vivo, CD-1 mice; conditions: CD-1, plasma, 1 mg/kg, Mouse, 1 mpk
From the text: (§11) Experimental Purpose: To evaluate the druggability of the compounds by measuring its pharmacokinetic properties in different animal species.
(§12) Experimental materials: CD-1 mice, Sprague-Dawley strain rats, beagle dogs, and crab-eating macaques.
(§13) Drug preparation: An appropriate amount of sample was weighed and then prepared into a clear or suspended solution.
(§14) Experimental procedure: The animal pharmacokinetic characteristics after intravenous injection and oral administration of the compound were tested using a standard protocol. The candidate compound was prepared as a clear solution (for intravenous injection) or a homogeneous suspension (for oral administration) during the experiment and administered to the animals as a single dose. Whole blood samples were collected at 0.083, 0.25, 0.5, 1, 2, 4, 8, and 24 hours, centrifuged at 3200 g for 10 minutes to separate the supernatant to obtain plasma samples. The plasma concentration was quantitatively analyzed by LC-MS/MS analysis method and pharmacokinetic parameters were calculated, such as peak concentration, peak time, clearance rate, half-life, area under the drug-time curve, etc.

in vivo = test: in vivo; set-up: species or system crab-eating macaques; conditions: monkey
From the text: as §11, §12, §13, §14

[5] = tested on: Candida albicans ATCC MYA-4788; test: Mouse Candida vaginal infection model; assay type: in vivo; conditions: female C3H/NeH mice, 20 mpk intraperitoneally once a day for 3 days after ABT, CFU at 96 hours of infection, P<0.001
Experimental: • Experimental animals: female C3H/NeH mice, 6 to 8 weeks old, 19 to 21 g, n=5 to 6; • microbial pathogen: Candida albicans ATCC MYA-4788; • inoculation level and route: 5.0E+05 CFU/mouse, infected by vaginal instillation; • test sample: WX004: 20 mpk
Treatment: ABT was administered orally 22 hours after infection, and the test compound was injected intraperitoneally 24 hours after infection. In this experiment, the Vehicle group and the test compound group were set up, with a total of 3 days of administration, once a day, and a administration volume of 10 mL/kg.
Observation indicators: After 96 hours of infection in each group of mice, the vaginal tissue and vaginal lavage fluid of the mice were taken for CFU counting. Plasma samples were collected at 0.25 h, 0.5 h, 1 h, 2 h, 4 h, 8 h, and 24 h after the last administration.

[6] = crab-eating macaque (cynomolgus), iv, 0.4 mg/kg
[7] = crab-eating macaque (cynomolgus), po, 10 mg/kg

With Nc1ccc(C#CCc2ccc(COc3ccccn3)cc2)cn1 [WX004] the MEC [1] was 0.39 µg/mL and 0.78 µg/mL, the MEC [2] was 0.1 µg/mL and the AUC ([3]; read-out: Concentration Integral AUC) was 305 µM·h. For the same compound, the Cmax ([3]; read-out: Peak Concentration Cmax) was 19 µM, the Tmax ([3]; read-out: Peak Time Tmax) was 1 h and the AUC [4] was 2 µM·h. The Vd [4] was 5.2 L/kg, the clearance [4] was 28 mL/min/kg and the half-life [4] was 2.1 h. It also gave an AUC (in vivo; [6]) of 5 µM·h, a Vd (in vivo; [6]) of 4.4 L/kg and a clearance (in vivo; [6]) of 4.3 mL/min/kg. It also gave a Cmax (in vivo; [7]) of 9 µM, a Tmax (in vivo; [7]) of 4 h and an AUC (in vivo; crab-eating macaque, po, 10 mg/kg) of 72 µM·h. The half-life (in vivo; iv, 0.4 mg/kg) was 3.5 h, the bioavailability (in vivo; po, 10 mg/kg) was 60% and the “reduction of fungal load in the vaginal lavage fluid compared with the Vehicle group” value [5] was 2.5 lg. The “reduction of fungal load in the vaginal tissue compared with the Vehicle group” value [5] was 2.7 lg.
